PubChem BioAssay (NCI)
“And” between values parts separate entries of the source, which are not always exact repeats. Equal values may be shown once.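 Test compounds were applied to cells in 96-well plates for 48 hours at 5 doses. The concentration for 50% growth inhibition is given as GI50. TGI marks complete inhibition of growth.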

Tests used:
Assay in all cases: growth of human tumour cells (NCI), 48 h
[1] = system: HCT-116 colon
[2] = system: HOP-62 NSCLC
[3] = system: SK-OV-3 ovarian
[4] = system: UACC-257 melanoma
[5] = system: K-562 leukemia
[6] = system: NCI-H460 lung
[7] = system: HCT-15 colon
[8] = system: KM12 colon
[9] = system: SF-539 CNS
[10] = system: IGROV1 ovarian

Compound	GI50 [1]	TGI [1]	GI50 [2]	TGI [2]	GI50 [3]	TGI [3]	GI50 [4]	TGI [4]	GI50 [5]	TGI [5]	GI50 [6]	TGI [6]	GI50 [7]	TGI [7]	GI50 [8]	TGI [8]	GI50 [9]	TGI [9]	GI50 [10]	TGI [10]
Cc1c2cc[nH]c(=O)c2c(C)c2c1[nH]c1cc(OCCN3CCN(C)CC3)ccc12	0.339 µM	2.09 µM	0.469 µM	3.24 µM	0.614 µM	5.9 µM	2.51 µM	7.72 µM	0.949 µM	10.7 µM	0.418 µM	1.84 µM	1.88 µM	12 µM	1.19 µM	5.61 µM	1.31 µM	2.77 µM	0.799 µM	7.59 µM
O=C(Nc1ccc(Cl)cc1Cl)c1ccc(NC2=C(Cl)C(=O)N(Cc3ccccc3)C2=O)cc1	34.2 µM	> 100 µM	20.2 µM	40.5 µM	30.3 µM	78.8 µM	26.2 µM	71.8 µM	6.24 µM	18.4 µM	15.8 µM	37.9 µM	16.8 µM	> 100 µM	21.1 µM	64.4 µM	18.9 µM	33.1 µM	12.2 µM	> 100 µM
O=C(O)CSCc1cccc2ccccc12		> 100 µM		> 100 µM		> 100 µM		> 100 µM		> 100 µM		> 100 µM		> 100 µM		> 100 µM		> 100 µM		> 100 µM
CNC(=O)c1cc(COc2nnc(Nc3ccc(Cl)cc3)c3ccoc23)ccn1	3.32 µM and > 10 µM	11.3 µM and > 10 µM	3.31 µM and 9.48 µM	16 µM and > 10 µM	3.48 µM and 9.73 µM	13.2 µM and > 10 µM	6.3 µM and > 10 µM	35.6 µM and > 10 µM	19.6 µM and > 10 µM	72 µM and > 10 µM	4.21 µM and > 10 µM	20.9 µM and > 10 µM	12.6 µM and > 10 µM	52.4 µM and > 10 µM	21.5 µM and > 10 µM	80.9 µM and > 10 µM	1.53 µM and 1.89 µM	5.86 µM and > 10 µM	11.4 µM and > 10 µM	27.4 µM and > 10 µM
CC[P+](C)(Cc1ccccc1)c1ccccc1 (centres undefined)		> 100 µM		> 100 µM		> 100 µM		> 100 µM		> 100 µM		> 100 µM		> 100 µM		> 100 µM		> 100 µM		> 100 µM
COc1cc2c(cc1OC)C13CCN4C=C5CCOC6CC(=O)N2C1C6C5CC43 (centres undefined)		> 100 µM		> 100 µM		> 100 µM		> 100 µM		> 100 µM		> 100 µM		> 100 µM		> 100 µM		> 100 µM		> 100 µM
O=C(c1ccccc1)c1c(NCC(O)CN2CCCC2)n(Cc2ccccc2)c(=O)n(Cc2ccccc2)c1=O (centres undefined)	15 µM	28.2 µM	21.7 µM	49.5 µM	34 µM	> 100 µM	21 µM	42.3 µM	23.9 µM	99.1 µM	19.8 µM	38.9 µM	17 µM	32.2 µM	15.8 µM	31.7 µM	19.6 µM	33.9 µM	21.6 µM	52.8 µM
Nc1nc(CCC(=O)Nc2cccc(C(F)(F)F)c2)cc(-c2cccc3ccccc23)n1		> 100 µM		> 100 µM		> 100 µM		> 100 µM		> 100 µM		> 100 µM		> 100 µM		> 100 µM		> 100 µM		> 100 µM
CC(C)(C)OC(=O)NCCNC1=CC(=O)c2nc3ccccc3c3ccnc1c23	22.3 µM	> 100 µM	24.4 µM	> 100 µM	43.3 µM	> 100 µM	23.5 µM	75.5 µM	0.131 µM	> 100 µM	15.2 µM	43.1 µM	19.3 µM	47.9 µM	22.7 µM	66.6 µM	20.2 µM	40.5 µM	24.6 µM	77.3 µM
CN(C)CCCOc1ccccc1NC1=C(Cl)C(=O)C(Nc2ccccc2OCCCN(C)C)=C(Cl)C1=O	0.183 µM	0.356 µM	1.66 µM	3.31 µM	1.66 µM	3.02 µM	1.17 µM	2.69 µM	0.274 µM	0.793 µM	1.32 µM	2.85 µM	0.749 µM	2.18 µM	0.762 µM	2.2 µM	1.66 µM	3.04 µM	0.355 µM	0.969 µM
C(=Nc1ccccc1)C1CCCC[N-]1.C(=Nc1ccccc1)C1CCCC[N-]1.[Cu+2].[O-][Cl+3]([O-])([O-])O (centres undefined)	7.3 µM	28.8 µM	15.5 µM	54.6 µM	0.704 µM	35.8 µM	> 37.7 µM	> 55.2 µM	0.745 µM	14.4 µM	11.2 µM	> 58.2 µM	0.529 µM	9.76 µM	1.07 µM	22.4 µM	17.7 µM	42.3 µM	14 µM	47.8 µM
FC(F)(F)C1(Cl)C(c2ccccc2)=C1c1ccccc1		27.4 µM		32.7 µM		32.4 µM		27.2 µM		26.2 µM		30.4 µM		27.8 µM		29 µM		29.6 µM		29.5 µM
Cc1ccc(C(=O)N(CCCN)[C@@H](c2nc3cc(Cl)ccc3c(=O)n2Cc2ccccc2)C(C)C)cc1	< 0.01 µM	1.41 µM and 1.26 µM	< 0.01 µM and 0.01 µM	2.07 µM and 2.09 µM	< 0.01 µM	1.65 µM and 2.19 µM		1.86 µM and 2.79 µM	< 0.01 µM	1.67 µM and 1.23 µM	< 0.01 µM	1.09 µM and 1.25 µM	0.0159 µM and < 0.01 µM	1.92 µM and 1.44 µM	< 0.01 µM	1.29 µM and 1.44 µM	< 0.01 µM	1.38 µM and 0.654 µM	< 0.0336 µM	2.09 µM
CN(C)c1ccc2c(c1)C(=O)N(OS(=O)(=O)c1ccc([N+](=O)[O-])cc1)C2=O		> 10 µM		> 100 µM		> 100 µM		58.8 µM		> 100 µM		> 100 µM		> 100 µM		75.5 µM		33.8 µM		43 µM
COc1cccc(C2CC(c3cc(OC)c(OC)c(OC)c3)=NN2)c1 (centres undefined)	5.31 µM	19 µM	8.99 µM	71.4 µM	24.1 µM	72.2 µM	12.7 µM	36.4 µM	4.19 µM	> 100 µM	13.3 µM	35.4 µM	10.1 µM	23.8 µM	5.02 µM	20.4 µM	5.33 µM	21.1 µM	2.02 µM	13.1 µM
